Source: ChEMBL document CHEMBL4184219, “Binding-Site Compatible Fragment Growing Applied to the Design of β2-Adrenergic Receptor Ligands” (J Med Chem, 2018)

Legend:
[1] = target: T1, Beta-2 adrenergic receptor (Homo sapiens, UniProt P07550); assay: Displacement of [3H]-DHA from Nb80-fused beta2 adrenergic receptor (unknown origin) expressed in Sf9 cell membranes after 2 hrs by microbeta scintillation counting method
[2] = target: T1, Beta-2 adrenergic receptor; assay: Displacement of [3H]-DHA from Nb69-fused beta2 adrenergic receptor (unknown origin) expressed in Sf9 cell membranes after 2 hrs by microbeta scintillation counting method
[3] = target: T1, Beta-2 adrenergic receptor; assay: Ratio of Ki for Nb69-fused beta2 adrenergic receptor (unknown origin) to Ki for Nb80-fused beta2 adrenergic receptor (unknown origin)

T1 sequence (P07550 whole entry, looked up, the tested form may be a part): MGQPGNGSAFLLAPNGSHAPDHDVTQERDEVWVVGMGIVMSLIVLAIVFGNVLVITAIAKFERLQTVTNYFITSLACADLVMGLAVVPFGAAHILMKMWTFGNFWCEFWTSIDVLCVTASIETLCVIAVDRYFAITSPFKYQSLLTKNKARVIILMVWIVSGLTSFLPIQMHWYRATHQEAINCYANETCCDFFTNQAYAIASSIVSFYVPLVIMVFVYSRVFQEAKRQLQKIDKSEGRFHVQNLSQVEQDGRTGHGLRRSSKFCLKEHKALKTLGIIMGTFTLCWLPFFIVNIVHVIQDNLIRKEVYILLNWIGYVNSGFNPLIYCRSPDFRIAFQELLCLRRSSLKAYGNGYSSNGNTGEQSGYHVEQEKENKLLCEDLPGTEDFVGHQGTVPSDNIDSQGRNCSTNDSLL

Ki [1] [µM] | Ki [2] [µM] | Ratio Ki [3] | Structure (SMILES)
0.52 | 3.9 | 7.5 | COc1ccc2c(c1)c(CCNCCCc1ccc(Cl)cc1)cn2C
10.4 | 25 | 2.4 | COc1ccc2c(c1)c(CCNCCCc1cccc(C(F)(F)F)c1)cn2C
> 1000 | > 1000 | > 10 | CC1(NCc2cc3ccccc3s2)COC1
95.4 | > 1000 | > 51 | OCC(NCc1ccc(-c2nccs2)cc1)c1ccco1 (centres undefined)
78.1 | > 1000 | > 91 | NCc1ccc(-c2ncccn2)cc1
43.2 | 373 | 8.6 | CNCc1cc2ccccc2s1
4.39 | 268 | 61 | Cc1ccccc1C(C)NCc1ccc(-c2ncccn2)cc1 (centres undefined)
7.89 | 74 | 9.4 | CC(NC1CC(c2ccc(F)cc2)C1)c1ccc(Cl)cc1 (centres undefined)
33.8 | > 1000 | > 61 | CC(N)c1ccc(Cl)cc1 (centres undefined)
33.5 | 365 | 11 | CNCc1ccc(-c2nccs2)cc1
52.3 | 393 | 7.5 | C[C@H](CC(F)(F)F)NCc1ccc(-c2nccs2)cc1

Structure (SMILES) | Ki [1] [µM] | Ki [2] [µM] | Ratio Ki [3]
COc1ccc2c(c1)c(CCNCc1cc(OC(F)(F)F)ccc1F)cn2C | 80.4 | 83.8 | 1
COc1ccc2c(c1)c(CCN)cn2C | 20.4 | 36.2 | 1.8
